Laboratory results: patent US12637428B2, “Isoquinoline derivatives as SIK2 inhibitors” (Cancer Research Technology Limited, priority 2019, dated 2026)
pKi: −log10 of the molar value.

What was measured:
Format in all cases: biochemical
Src = target: T1, Src (Homo sapiens, UniProt P12931); test: Src kinase assay, IMAP fluorescence polarization; conditions: 50 or 100 μM ATP, average
T1 construct: purchased Life Technologies
Method in brief: (§1)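 Dose-response over 0.00005-1 μM compound in 20 mM Tris pH 7.2 containing 4 mM MgCl2, 0.2% BSA and 2 mM DTT, with 50 or 100 μM ATP and 100 nM FAM-labelled peptide. Kinase 0.6-13 nM, 60 min at room temperature; IMAP FP readout, inhibition normalized to no-inhibitor and no-enzyme controls.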

EPHA2 = target: T2, EPHA2 (Homo sapiens, UniProt P29317); test: EPHA2 kinase assay, IMAP fluorescence polarization; conditions: 50 or 100 μM ATP, Tris pH 8.5, average
T2 construct: purchased Life Technologies

SIK3 = target: T3, SIK3 (Homo sapiens, UniProt Q9Y2K2); test: SIK3 kinase assay, IMAP fluorescence polarization; conditions: 50 or 100 μM ATP, average
T3 construct: purchased Life Technologies
Method in brief: as §1

SIK2 = target: T4, SIK2 (Homo sapiens, UniProt Q9H0K1); test: SIK2 kinase assay, IMAP fluorescence polarization; conditions: 50 or 100 μM ATP, average
T4 construct: purchased Life Technologies
Method in brief: as §1

SIK1 = target: T5, SIK1 (Homo sapiens, UniProt P57059); test: SIK1 kinase assay, IMAP fluorescence polarization; conditions: 50 or 100 μM ATP, average
T5 construct: purchased Life Technologies
Method in brief: as §1

Abl = target: T6, Abl (Homo sapiens, UniProt P00519); test: Abl kinase assay, IMAP fluorescence polarization; conditions: 50 or 100 μM ATP, average
T6 construct: purchased Life Technologies
Method in brief: as §1

T3 sequence (Q9Y2K2 whole entry): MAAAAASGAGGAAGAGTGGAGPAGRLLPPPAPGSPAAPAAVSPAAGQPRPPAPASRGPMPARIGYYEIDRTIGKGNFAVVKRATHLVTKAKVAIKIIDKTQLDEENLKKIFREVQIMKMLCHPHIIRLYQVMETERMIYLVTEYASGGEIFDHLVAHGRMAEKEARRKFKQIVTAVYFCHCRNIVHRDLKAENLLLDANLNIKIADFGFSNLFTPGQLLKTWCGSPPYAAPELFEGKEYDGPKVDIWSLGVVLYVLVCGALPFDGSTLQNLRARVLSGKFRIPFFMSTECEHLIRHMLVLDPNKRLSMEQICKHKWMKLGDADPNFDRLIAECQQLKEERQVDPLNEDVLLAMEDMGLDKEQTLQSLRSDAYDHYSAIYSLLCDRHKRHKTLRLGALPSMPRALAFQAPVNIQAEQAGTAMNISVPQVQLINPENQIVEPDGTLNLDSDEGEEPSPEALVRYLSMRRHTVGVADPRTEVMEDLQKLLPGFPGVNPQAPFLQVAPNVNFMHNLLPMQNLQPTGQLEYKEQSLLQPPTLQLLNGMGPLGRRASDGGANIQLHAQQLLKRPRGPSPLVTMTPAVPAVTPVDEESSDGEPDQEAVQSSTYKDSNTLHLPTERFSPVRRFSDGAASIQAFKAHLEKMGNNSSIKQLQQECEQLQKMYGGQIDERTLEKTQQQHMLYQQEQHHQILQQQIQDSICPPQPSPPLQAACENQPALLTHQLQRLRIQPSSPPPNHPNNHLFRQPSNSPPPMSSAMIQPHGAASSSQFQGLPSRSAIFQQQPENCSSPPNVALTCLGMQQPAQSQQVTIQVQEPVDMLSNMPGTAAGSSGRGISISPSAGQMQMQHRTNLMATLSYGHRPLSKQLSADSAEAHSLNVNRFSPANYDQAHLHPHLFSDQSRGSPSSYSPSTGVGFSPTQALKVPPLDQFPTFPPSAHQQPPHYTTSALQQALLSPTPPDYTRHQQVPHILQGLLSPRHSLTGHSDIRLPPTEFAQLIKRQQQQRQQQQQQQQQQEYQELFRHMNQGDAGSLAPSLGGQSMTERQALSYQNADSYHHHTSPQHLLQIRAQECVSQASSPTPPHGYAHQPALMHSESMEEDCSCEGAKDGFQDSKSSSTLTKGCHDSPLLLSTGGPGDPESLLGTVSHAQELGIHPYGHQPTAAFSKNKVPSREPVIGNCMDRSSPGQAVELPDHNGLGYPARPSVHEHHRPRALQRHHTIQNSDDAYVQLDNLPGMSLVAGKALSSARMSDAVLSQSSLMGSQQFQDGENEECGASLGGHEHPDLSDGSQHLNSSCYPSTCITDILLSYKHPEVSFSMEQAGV
T2 sequence (P29317 24-976): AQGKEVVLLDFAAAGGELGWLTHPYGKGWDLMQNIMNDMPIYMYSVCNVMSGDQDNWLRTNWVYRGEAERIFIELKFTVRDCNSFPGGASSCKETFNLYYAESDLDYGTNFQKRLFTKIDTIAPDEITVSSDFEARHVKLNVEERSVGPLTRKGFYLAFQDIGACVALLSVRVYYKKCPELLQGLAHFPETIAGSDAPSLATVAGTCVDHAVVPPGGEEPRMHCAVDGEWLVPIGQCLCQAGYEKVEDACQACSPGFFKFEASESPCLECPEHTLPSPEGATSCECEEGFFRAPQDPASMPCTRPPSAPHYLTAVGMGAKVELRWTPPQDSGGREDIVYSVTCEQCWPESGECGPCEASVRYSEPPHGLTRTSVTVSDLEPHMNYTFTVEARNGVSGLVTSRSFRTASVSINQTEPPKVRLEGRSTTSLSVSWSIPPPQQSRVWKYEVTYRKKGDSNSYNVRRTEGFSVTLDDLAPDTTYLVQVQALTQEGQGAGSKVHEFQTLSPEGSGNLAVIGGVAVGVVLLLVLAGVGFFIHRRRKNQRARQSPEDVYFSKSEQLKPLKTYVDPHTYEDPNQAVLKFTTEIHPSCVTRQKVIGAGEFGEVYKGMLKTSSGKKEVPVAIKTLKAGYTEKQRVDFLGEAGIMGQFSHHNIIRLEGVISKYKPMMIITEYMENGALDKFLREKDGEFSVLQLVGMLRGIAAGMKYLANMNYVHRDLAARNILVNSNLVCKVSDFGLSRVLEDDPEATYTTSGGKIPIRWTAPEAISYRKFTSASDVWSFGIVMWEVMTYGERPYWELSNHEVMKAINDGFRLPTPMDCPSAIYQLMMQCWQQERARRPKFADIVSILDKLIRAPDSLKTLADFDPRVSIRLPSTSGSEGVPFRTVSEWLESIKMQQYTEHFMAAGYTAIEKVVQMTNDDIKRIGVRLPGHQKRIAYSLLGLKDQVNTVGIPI
T5 sequence (P57059 whole entry): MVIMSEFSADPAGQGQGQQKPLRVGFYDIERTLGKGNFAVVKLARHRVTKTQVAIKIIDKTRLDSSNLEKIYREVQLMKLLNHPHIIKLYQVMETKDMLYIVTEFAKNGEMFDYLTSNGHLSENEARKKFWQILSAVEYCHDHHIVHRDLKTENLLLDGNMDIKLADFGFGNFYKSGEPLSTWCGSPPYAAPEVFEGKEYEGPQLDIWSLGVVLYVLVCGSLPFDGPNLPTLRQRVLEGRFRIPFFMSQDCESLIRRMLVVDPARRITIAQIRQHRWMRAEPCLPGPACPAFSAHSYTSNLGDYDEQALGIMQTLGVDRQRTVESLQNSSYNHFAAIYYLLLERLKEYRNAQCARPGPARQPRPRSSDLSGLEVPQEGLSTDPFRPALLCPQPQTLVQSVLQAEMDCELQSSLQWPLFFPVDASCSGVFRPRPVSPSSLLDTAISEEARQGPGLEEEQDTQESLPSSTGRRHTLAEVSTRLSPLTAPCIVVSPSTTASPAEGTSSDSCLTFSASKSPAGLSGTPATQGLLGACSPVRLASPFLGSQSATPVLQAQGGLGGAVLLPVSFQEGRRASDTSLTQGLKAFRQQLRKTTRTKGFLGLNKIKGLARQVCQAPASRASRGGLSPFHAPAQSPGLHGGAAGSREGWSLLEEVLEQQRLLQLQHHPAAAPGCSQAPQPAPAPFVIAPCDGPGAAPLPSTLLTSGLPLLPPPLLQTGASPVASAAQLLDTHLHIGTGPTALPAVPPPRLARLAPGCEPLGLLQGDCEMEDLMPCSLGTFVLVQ
T6 sequence (P00519 whole entry): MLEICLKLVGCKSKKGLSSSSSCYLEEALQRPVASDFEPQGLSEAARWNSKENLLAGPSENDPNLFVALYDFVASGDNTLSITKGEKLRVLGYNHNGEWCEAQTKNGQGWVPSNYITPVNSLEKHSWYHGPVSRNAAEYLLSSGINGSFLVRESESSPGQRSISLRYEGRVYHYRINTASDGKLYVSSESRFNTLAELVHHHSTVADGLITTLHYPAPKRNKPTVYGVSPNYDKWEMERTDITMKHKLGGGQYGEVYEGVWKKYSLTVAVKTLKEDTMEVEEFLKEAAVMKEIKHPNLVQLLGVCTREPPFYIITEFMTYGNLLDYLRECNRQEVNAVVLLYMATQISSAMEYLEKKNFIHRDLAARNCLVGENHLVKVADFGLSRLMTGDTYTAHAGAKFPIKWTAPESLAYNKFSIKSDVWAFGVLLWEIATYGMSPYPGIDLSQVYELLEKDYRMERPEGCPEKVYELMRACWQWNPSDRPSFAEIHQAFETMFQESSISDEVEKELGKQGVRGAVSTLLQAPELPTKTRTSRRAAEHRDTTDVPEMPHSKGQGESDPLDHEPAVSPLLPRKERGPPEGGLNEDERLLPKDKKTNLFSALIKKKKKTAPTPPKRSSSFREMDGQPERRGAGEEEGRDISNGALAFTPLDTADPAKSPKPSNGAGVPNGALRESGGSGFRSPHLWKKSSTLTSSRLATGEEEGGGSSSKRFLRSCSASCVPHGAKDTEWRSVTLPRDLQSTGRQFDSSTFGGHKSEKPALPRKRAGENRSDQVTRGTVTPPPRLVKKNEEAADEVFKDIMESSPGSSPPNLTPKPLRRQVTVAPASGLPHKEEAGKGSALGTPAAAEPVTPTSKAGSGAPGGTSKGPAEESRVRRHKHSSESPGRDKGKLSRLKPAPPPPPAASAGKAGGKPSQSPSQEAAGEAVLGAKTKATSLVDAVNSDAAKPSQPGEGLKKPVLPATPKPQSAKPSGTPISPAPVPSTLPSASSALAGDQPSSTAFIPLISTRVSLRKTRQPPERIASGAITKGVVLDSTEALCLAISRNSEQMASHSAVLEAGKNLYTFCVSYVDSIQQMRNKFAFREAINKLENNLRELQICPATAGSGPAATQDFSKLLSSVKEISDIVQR
T4 sequence (Q9H0K1 whole entry): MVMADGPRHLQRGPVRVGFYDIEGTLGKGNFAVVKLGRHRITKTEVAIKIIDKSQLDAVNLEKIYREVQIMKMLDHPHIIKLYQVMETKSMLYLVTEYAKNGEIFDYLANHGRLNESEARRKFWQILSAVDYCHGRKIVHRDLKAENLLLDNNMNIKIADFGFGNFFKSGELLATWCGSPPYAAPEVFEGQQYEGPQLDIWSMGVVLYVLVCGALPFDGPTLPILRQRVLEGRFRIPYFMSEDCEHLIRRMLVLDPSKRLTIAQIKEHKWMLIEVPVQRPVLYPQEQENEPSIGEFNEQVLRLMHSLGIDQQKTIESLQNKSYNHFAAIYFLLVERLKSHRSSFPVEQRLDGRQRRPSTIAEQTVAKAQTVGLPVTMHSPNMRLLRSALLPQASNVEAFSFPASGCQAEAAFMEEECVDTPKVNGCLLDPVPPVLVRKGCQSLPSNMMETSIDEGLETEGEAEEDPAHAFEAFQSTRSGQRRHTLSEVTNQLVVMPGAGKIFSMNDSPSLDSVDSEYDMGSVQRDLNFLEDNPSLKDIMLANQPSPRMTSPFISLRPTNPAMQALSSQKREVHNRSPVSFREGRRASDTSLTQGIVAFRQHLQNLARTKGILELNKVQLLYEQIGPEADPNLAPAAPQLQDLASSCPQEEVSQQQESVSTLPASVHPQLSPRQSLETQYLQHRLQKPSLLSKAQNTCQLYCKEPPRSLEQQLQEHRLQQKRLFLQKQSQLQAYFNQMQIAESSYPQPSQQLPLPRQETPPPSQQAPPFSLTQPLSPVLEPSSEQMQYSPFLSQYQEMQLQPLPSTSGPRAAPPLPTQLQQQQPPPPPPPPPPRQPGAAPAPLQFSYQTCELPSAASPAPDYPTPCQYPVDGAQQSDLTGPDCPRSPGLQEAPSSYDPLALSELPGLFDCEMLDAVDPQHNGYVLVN

| Structure (SMILES) | pKi (Src) | pKi (EPHA2) | pKi (SIK3) | pKi (SIK2) | pKi (SIK1) | pKi (Abl) |
| --- | --- | --- | --- | --- | --- | --- |
| Cc1cccc(F)c1-c1cc(NC2CCNCC2)c2c(C#N)c(N)ncc2c1 [Example 133, 3-Amino-7-(2-fluoro-6-methyl-phenyl)-5-(4-piperidylamino)isoquinoline-4-carbonitrile] | 8.20 | 7.46 | 9.57 | 10.22 | 9.46 | 8.95 |
| Cc1cccc(F)c1-c1cc2cnc(N)cc2c(NC2CCNCC2)c1F [Example 134, 6-Fluoro-7-(2-fluoro-6-methyl-phenyl)-N5-(4-piperidyl)isoquinoline-3,5-diamine] | 7.91 | 7.60 | 9.35 | 9.88 | 9.25 | 8.71 |
| Cc1cccc(F)c1-c1cc2cnc(N)cc2c(NC2CCN(C)CC2)c1F [Example 135, 6-Fluoro-7-(2-fluoro-6-methyl-phenyl)-N5-(1-methyl-4-piperidyl)isoquinoline-3,5-diamine] | 7.19 | 7.51 | 9.51 | 10.03 | 9.44 | 8.10 |
| Cc1cccc(F)c1-c1cc(NC(=O)C2CCNC2)c2cc(N)ncc2c1 (stereo not drawn) [Example 136, N-[3-amino-7-(2-fluoro-6-methyl-phenyl)-5-isoquinolyl] pyrrolidine-3-carboxamide] | 6.83 | 6.59 | 8.05 | 8.96 | 8.72 | 7.56 |
| Cc1cccc(Cl)c1-c1cc(NC2CCNCC2)c2nc(N)ncc2c1 [Example 137, 6-(2-chloro-6-methyl-phenyl)-N8-(4-piperidyl)quinazoline-2,8-diamine] | 7.73 | 8.04 | 9.29 | 10.16 | 9.53 | 7.65 |
| Cc1cccc(Cl)c1-c1cc(NC2CCNCC2)c2ncncc2c1 [Example 138, 6-(2-chloro-6-methyl-phenyl)-N-(4-piperidyl)quinazolin-8-amine] | 6.48 | 7.03 | 7.81 | 8.51 | 8.43 | 6.26 |
